Where “and” joins values, the source holds several entries; their conditions need not be identical. Equal values may be shown once. Inconclusive results and toxic doses are left out. No stated cut-off is given here; in the data, active means T/C of 150% or more; inactive means T/C below 125%.
System: L1210 leukemia ip in BDF1 mice, survival T/C
Test: NCI In Vivo Anticancer Drug Screen. Data for tumor model L1210 Leukemia (intraperitoneal) in B6D2F1 (BDF1) mice
Settings: endpoint: mean survival time, higher = longer survival
Outline: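 Transplanted-tumor mice were given test agent; controls received vehicle only. Survival readings from the two groups were divided (treated over control).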

[1] = dose: 100.0 mg/kg/injection, schedule: Q01DX009 (ip), vehicle: Klucel (hydroxypropylcellulose) (HPC)
[2] = dose: 100.0 mg/kg/injection, schedule: Q04DX003 (ip), vehicle: Klucel (hydroxypropylcellulose) (HPC)
[3] = dose: 200.0 mg/kg/injection, schedule: Q01DX009 (ip), vehicle: Klucel (hydroxypropylcellulose) (HPC)
[4] = dose: 200.0 mg/kg/injection, schedule: Q04DX003 (ip), vehicle: Klucel (hydroxypropylcellulose) (HPC)
[5] = dose: 400.0 mg/kg/injection, schedule: Q01DX009 (ip), vehicle: Klucel (hydroxypropylcellulose) (HPC)
[6] = dose: 400.0 mg/kg/injection, schedule: Q04DX003 (ip), vehicle: Klucel (hydroxypropylcellulose) (HPC)
[7] = dose: 100.0 mg/kg/injection, schedule: Q01DX001 (ip), vehicle: saline
[8] = dose: 200.0 mg/kg/injection, schedule: Q01DX001 (ip), vehicle: saline
[9] = dose: 400.0 mg/kg/injection, schedule: Q01DX001 (ip), vehicle: saline
[10] = dose: 100.0 mg/kg/injection, schedule: Q01DX009 (ip), vehicle: saline sonified
[11] = dose: 200.0 mg/kg/injection, schedule: Q01DX009 (ip), vehicle: saline sonified
[12] = dose: 100.0 mg/kg/injection, schedule: Q04DX003 (ip), vehicle: water
[13] = dose: 200.0 mg/kg/injection, schedule: Q04DX003 (ip), vehicle: water
[14] = dose: 100.0 mg/kg/injection, schedule: Q04DX003 (ip), vehicle: saline
[15] = dose: 200.0 mg/kg/injection, schedule: Q04DX003 (ip), vehicle: saline

Measured: T/C

COc1ccc(C(O)c2cnc(C)n2Cc2ccccc2)cc1 (centres undefined)
inactive: dose: 100.0 mg/kg/injection, schedule: Q01DX001 (ip), vehicle: Klucel (hydroxypropylcellulose) (HPC) 93 % of control | [1] 101 % of control and 105 % of control | dose: 100.0 mg/kg/injection, schedule: Q04DX002 (ip), vehicle: Klucel (hydroxypropylcellulose) (HPC) 94 % of control and 98 % of control and 106 % of control | [2] 93 % of control | dose: 200.0 mg/kg/injection, schedule: Q01DX001 (ip), vehicle: Klucel (hydroxypropylcellulose) (HPC) 102 % of control | [3] 100 % of control and 101 % of control | dose: 200.0 mg/kg/injection, schedule: Q04DX002 (ip), vehicle: Klucel (hydroxypropylcellulose) (HPC) 92 % of control and 95 % of control and 88 % of control | [4] 93 % of control | dose: 400.0 mg/kg/injection, schedule: Q01DX001 (ip), vehicle: Klucel (hydroxypropylcellulose) (HPC) 97 % of control | [5] 96 % of control and 90 % of control | dose: 400.0 mg/kg/injection, schedule: Q04DX002 (ip), vehicle: Klucel (hydroxypropylcellulose) (HPC) 95 % of control and 98 % of control and 91 % of control | [6] 95 % of control

O=C(O)C(CSC(c1ccccc1)c1ccccc1)NC(=O)C(c1ccccc1)c1ccccc1 (centres undefined)
inactive: [1] 112 % of control | [2] 97 % of control | [3] 101 % of control | [4] 99 % of control | [5] 98 % of control | [6] 94 % of control

Cc1cccc(N(CCOC(=O)Nc2ccc(Cl)cc2)CCOC(=O)Nc2ccc(Cl)cc2)c1
inactive: [7] 94 % of control | [8] 94 % of control | [9] 96 % of control

CC(=O)NC1CCCC(O)C1 (centres undefined)
inactive: dose: 100.0 mg/kg/injection, schedule: Q01DX009 (ip), vehicle: saline 87 % of control | dose: 200.0 mg/kg/injection, schedule: Q01DX009 (ip), vehicle: saline 92 % of control | dose: 400.0 mg/kg/injection, schedule: Q01DX009 (ip), vehicle: saline 92 % of control

Cc1c(F)c(I)c(Br)c(C)c1[N+](=O)[O-]
inactive: dose: 75.0 mg/kg/injection, schedule: Q04DX003 (ip), vehicle: Klucel (hydroxypropylcellulose) (HPC) 104 % of control | dose: 150.0 mg/kg/injection, schedule: Q04DX003 (ip), vehicle: Klucel (hydroxypropylcellulose) (HPC) 88 % of control | dose: 300.0 mg/kg/injection, schedule: Q04DX003 (ip), vehicle: Klucel (hydroxypropylcellulose) (HPC) 93 % of control

CNc1cc(Cl)c(Cl)cc1[N+](=O)[O-]
inactive: [10] 98 % of control | [2] 95 % of control | [11] 98 % of control | [4] 98 % of control | dose: 400.0 mg/kg/injection, schedule: Q01DX009 (ip), vehicle: saline sonified 98 % of control | [6] 104 % of control

CN(C)c1ccc(Cc2ccc(N(C)C)cc2[N+](=O)[O-])cc1
inactive: [1] 102 % of control | [2] 96 % of control | [3] 93 % of control | [4] 96 % of control | [5] 95 % of control | [6] 101 % of control

NC(N)=Nc1ccc(C(=O)Oc2ccc(OC(=O)c3cccc(N=C(N)N)c3)cc2)cc1
inactive: dose: 50.0 mg/kg/injection, schedule: Q01DX009 (ip), vehicle: water 96 % of control | dose: 50.0 mg/kg/injection, schedule: Q04DX003 (ip), vehicle: water 90 % of control | dose: 100.0 mg/kg/injection, schedule: Q01DX009 (ip), vehicle: water 98 % of control | [12] 93 % of control and 97 % of control | dose: 200.0 mg/kg/injection, schedule: Q01DX009 (ip), vehicle: water 92 % of control | [13] 98 % of control and 100 % of control | dose: 400.0 mg/kg/injection, schedule: Q04DX003 (ip), vehicle: water 93 % of control and 95 % of control

N#Cc1cn(C2OC(CO)C(O)C2O)c2ncn3ccnc3c12 (centres undefined)
inactive: [12] 116 % of control | [13] 113 % of control and 117 % of control | dose: 300.0 mg/kg/injection, schedule: Q04DX003 (ip), vehicle: water 121 % of control | dose: 500.0 mg/kg/injection, schedule: Q04DX003 (ip), vehicle: water 107 % of control

CC/C(=N/N(C)C)c1ccccc1
inactive: [14] 96 % of control | [15] 93 % of control

CCC(CC)NCCOC(=O)c1ccc(N)cc1
inactive: dose: 75.0 mg/kg/injection, schedule: Q01DX001 (ip), vehicle: saline 100 % of control | dose: 150.0 mg/kg/injection, schedule: Q01DX001 (ip), vehicle: saline 98 % of control

O=[N+]([O-])c1ccccc1C1OCCO1
inactive: dose: 50.0 mg/kg/injection, schedule: Q01DX001 (ip), vehicle: carboxymethylcellulose (CMC) 95 % of control | dose: 100.0 mg/kg/injection, schedule: Q01DX001 (ip), vehicle: carboxymethylcellulose (CMC) 93 % of control | dose: 200.0 mg/kg/injection, schedule: Q01DX001 (ip), vehicle: carboxymethylcellulose (CMC) 101 % of control | dose: 400.0 mg/kg/injection, schedule: Q01DX001 (ip), vehicle: carboxymethylcellulose (CMC) 93 % of control

O=C(Nc1cc(Cl)ccc1Cl)c1cccc(Cl)c1
inactive: [1] 93 % of control | [3] 100 % of control | [5] 97 % of control

Cc1ncc(CCO)c(CO)c1O
inactive: [7] 104 % of control | [8] 101 % of control | [9] 106 % of control

COc1ccc(NC(=O)Nc2ccc(C)c(Cl)c2)cc1
inactive: dose: 100.0 mg/kg/injection, schedule: Q01DX009 (sc), vehicle: olive oil, sesame oil, peanut oil 96 % of control | dose: 100.0 mg/kg/injection, schedule: Q04DX003 (sc), vehicle: olive oil, sesame oil, peanut oil 99 % of control | dose: 200.0 mg/kg/injection, schedule: Q01DX009 (sc), vehicle: olive oil, sesame oil, peanut oil 107 % of control | dose: 200.0 mg/kg/injection, schedule: Q04DX003 (sc), vehicle: olive oil, sesame oil, peanut oil 93 % of control | dose: 400.0 mg/kg/injection, schedule: Q01DX009 (sc), vehicle: olive oil, sesame oil, peanut oil 94 % of control | dose: 400.0 mg/kg/injection, schedule: Q04DX003 (sc), vehicle: olive oil, sesame oil, peanut oil 97 % of control

CCOc1ccc(NC(=O)Nc2cccc(C(F)(F)F)c2)cc1
inactive: [1] 91 % of control | [3] 96 % of control | [5] 93 % of control

CC[CH2][Sn]([CH2]CC)[CH2]CC.CC[CH2][Sn]([CH2]CC)[CH2]CC
inactive: dose: 12.5 mg/kg/injection, schedule: Q01DX009 (sc), vehicle: olive oil, sesame oil, peanut oil 97 % of control | dose: 25.0 mg/kg/injection, schedule: Q01DX009 (sc), vehicle: olive oil, sesame oil, peanut oil 100 % of control | dose: 25.0 mg/kg/injection, schedule: Q04DX002 (sc), vehicle: olive oil, sesame oil, peanut oil 102 % of control | dose: 50.0 mg/kg/injection, schedule: Q04DX002 (sc), vehicle: olive oil, sesame oil, peanut oil 102 % of control | dose: 100.0 mg/kg/injection, schedule: Q04DX002 (sc), vehicle: olive oil, sesame oil, peanut oil 115 % of control

CCCCCCCCCCCCO[P+](=O)OCCCCCCCCCCCC
inactive: [10] 93 % of control | [14] 95 % of control | [11] 93 % of control | [15] 100 % of control | dose: 222.0 mg/kg/injection, schedule: Q01DX Z (ip), vehicle: methylcellulose (MC) 96 % of control | dose: 333.0 mg/kg/injection, schedule: Q01DX Z (ip), vehicle: methylcellulose (MC) 95 % of control | dose: 400.0 mg/kg/injection, schedule: Q04DX003 (ip), vehicle: saline 90 % of control

O=CO.[Pb]
inactive: [7] 90 % of control | [8] 92 % of control | [9] 98 % of control

NC(N)=NC(N)=Nc1cc(C(F)(F)F)ccc1Cl
inactive: dose: 12.5 mg/kg/injection, schedule: Q01DX009 (ip), vehicle: Klucel (hydroxypropylcellulose) (HPC) 95 % of control | dose: 25.0 mg/kg/injection, schedule: Q01DX009 (ip), vehicle: Klucel (hydroxypropylcellulose) (HPC) 95 % of control | dose: 50.0 mg/kg/injection, schedule: Q01DX009 (ip), vehicle: Klucel (hydroxypropylcellulose) (HPC) 113 % of control

O=C(NNC(=O)c1cccc([N+](=O)[O-])c1)C(=O)NNC(=O)c1cccc([N+](=O)[O-])c1
inactive: [1] 100 % of control | [3] 110 % of control | [5] 105 % of control

From PubChem BioAssay AID248 (DTP/NCI, 2004)
